The subject of the assay is phospho-PLCγ1 in Jurkat cells. Briefly: ITK target modulation PLC-γ assay (phospho-PLCγ1, αCD3-stimulated Jurkat cells). It is filed as cell-based, human. As to conditions: Homo sapiens, 1 hour compound incubation, αCD3 Dynabeads stimulation 8 minutes, MSD phospho-PLCγ1, read-out: PLC-γ Inhibition IC50. As to the method:
Jurkat cells, an immortalized human T-lymphocyte cell line, were maintained in RPMI media, 10% FBS, 1% pen/strep/glutamine (growth media). Cells were plated in growth media plus 50 μM β-mercaptoethanol at 400,000 cells per well of a 96 well plate.
Compounds were serially diluted into DMSO, and then into media to concentrations 10× that of the final assay concentration. Compounds were then added to the cells with the final assay DMSO concentration being 0.1%. Cells were incubated for 1 hour at 37° C.
Following compound incubation, αCD3 Dynabeads were added at 1 bead/cell to each assay well and incubated at 37° C. for 7 minutes. Unstimulated control wells received media only. The plate was then placed on a 96-well magnetic plate for an additional 60 seconds (total assay stimulation time equals 8 minutes). The plate was then dumped and gently patted dry on a paper towel. 50 μl of complete Meso Scale Discovery (MSD) Lysis buffer was then added to each well. Samples were assayed for phospho-PLCγ1 using Meso Scale Discovery technology.
The assay stimulation time has been optimized for detection of Itk kinase-mediated phosphorylation of PLCγ1. The timing and detection reagents for this assay could be adjusted to capture phosphorylation events upstream (e.g., phospho-ZAP70) or downstream of the Itk/PLCγ1 node, provided the appropriate phospho-specific antibodies are available for building of an MSD assay.

What is called IC50 is the midpoint of a concentration-inhibition curve.

Turning to `C=CC(=O)Nc1cc(C#N)cc(-c2cnc3[nH]cc(-c4ccncc4)c3c2)c1` [Example 19, N-(3-cyano-5-(3-(pyridin-4-yl)-1H-pyrrolo[2,3-b]pyridin-5-yl)phenyl)acryl-amide], the IC50 is more than 5 µM. Then `C=CC(=O)Nc1cccc(-c2cnc3[nH]cc(-c4ccnc5[nH]ccc45)c3c2)c1` [Example 62, N-(3-(1H,1′H-[3,4′-bipyrrolo[2,3-b]pyridin]-5-yl)phenyl)acryl-amide], with less than 1 µM; and `C=CC(=O)Nc1cccc(-c2cnc3[nH]cc(-c4cccc5occc45)c3c2)c1` [Example 82, N-(3-(3-(benzofuran-4-yl)-1H-pyrrolo[2,3-b]pyridin-5-yl)phenyl)acryl-amide], with more than 5 µM. Turning to `C=CC(=O)Nc1cccc(-c2cnc3[nH]cc(-c4cccc5cnccc45)c3c2)c1` [Example 55, N-(3-(3-(isoquinolin-5-yl)-1H-pyrrolo[2,3-b]pyridin-5-yl)phenyl)acryl-amide], the IC50 was more than 5 µM. As for `C=CC(=O)Nc1cccc(-c2cnc3[nH]cc(-c4cccc5[nH]ccc45)c3c2)c1` [Example 71, N-(3-(3-(1H-indol-4-yl)-1H-pyrrolo[2,3-b]pyridin-5-yl)phenyl)acryl-amide], the IC50 was in the range of 1 to 5 µM.

In the case of `C=CC(=O)Nc1cccc(-c2cnc3[nH]cc(-c4cccc(OC)c4)c3c2)c1` [Example 51, N-(3-(3-(3-methoxyphenyl)-1H-pyrrolo[2,3-b]pyridin-5-yl)phenyl)acryl-amide], the IC50 lay in the range of 1 to 5 µM.

Regarding `COc1cc(/C=C(\C#N)C(N)=O)cc(-c2cnc3[nH]cc(-c4ccnc(OC)c4)c3c2)c1` [Example 60, (E)-2-cyano-3-(3-methoxy-5-(3-(2-methoxypyridin-4-yl)-1H-pyrrolo[2,3-b]pyridin-5-yl)phenyl)acryl-amide], the IC50 is more than 5 µM. `C=CC(=O)Nc1cccc(-c2cnc3[nH]cc(-c4ccnc(NC)n4)c3c2)c1` [Example 91, N-(3-(3-(2-(methylamino)pyrimidin-4-yl)-1H-pyrrolo[2,3-b]pyridin-5-yl)phenyl)acryl-amide]: the IC50 is less than 1 µM. Then `C=C(C)C(=O)Nc1cc(-c2cnc3[nH]cc(-c4ccnc(OC)c4)c3c2)cc(-c2cnn(C)c2)n1` [Example 70, N-(4-(3-(2-methoxypyridin-4-yl)-1H-pyrrolo[2,3-b]pyridin-5-yl)-6-(1-methyl-1H-pyrazol-4-yl)pyridin-2-yl)methacryl-amide], with more than 5 µM; and `C=CC(=O)Nc1cccc(-c2cnc3[nH]cc(-c4ccc(=O)n(CC(C)(C)O)c4)c3c2)c1` [Example 66, N-(3-(3-(1-(2-hydroxy-2-methylpropyl)-6-oxo-1,6-dihydropyridin-3-yl)-1H-pyrrolo[2,3-b]pyridin-5-yl)phenyl)acryl-amide], with 1 to 5 µM; and `COC/C=C/C(=O)Nc1cccc(-c2cnc3[nH]cc(-c4ccnc(OC)c4)c3c2)c1` [Example 65, (E)-4-methoxy-N-(3-(3-(2-methoxypyridin-4-yl)-1H-pyrrolo[2,3-b]pyridin-5-yl)phenyl)but-2-enamide], with more than 5 µM. Turning to `C=CC(=O)Nc1cccc(-c2cnc3[nH]cc(-c4ccc(OC)nc4)c3c2)c1` [Example 30, N-(3-(3-(6-methoxypyridin-3-yl)-1H-pyrrolo[2,3-b]pyridin-5-yl)phenyl)acryl-amide], the IC50 lay in the range of 1 to 5 µM. Regarding `C=CC(=O)Nc1cccc(-c2cnc3[nH]cc(-c4cc(OC)nc(C(F)(F)F)c4)c3c2)c1` [Example 31, N-(3-(3-(2-methoxy-6-(trifluoromethyl)pyridin-4-yl)-1H-pyrrolo[2,3-b]pyridin-5-yl)phenyl)acryl-amide], the IC50 was more than 5 µM. As to `C=CC(=O)Nc1cccc(-c2cnc3[nH]cc(-c4ccncn4)c3c2)c1` [Example 49, N-(3-(3-(pyrimidin-4-yl)-1H-pyrrolo[2,3-b]pyridin-5-yl)phenyl)acryl-amide], the IC50 is less than 1 µM. `C=CC(=O)Nc1cccc(-c2cnc3[nH]cc(-c4cc(OC)ncc4C)c3c2)c1` [Example 79, N-(3-(3-(2-methoxy-5-methylpyridin-4-yl)-1H-pyrrolo[2,3-b]pyridin-5-yl)phenyl)acryl-amide]: the IC50 is more than 5 µM.

On to `C=CC(=O)Nc1cccc(-c2cnc3[nH]cc(-c4ccccc4C)c3c2)c1` [Example 42, N-(3-(3-(o-tolyl)-1H-pyrrolo[2,3-b]pyridin-5-yl)phenyl)acryl-amide], for which the IC50 is 1 to 5 µM. Then `C=CC(=O)Nc1cccc(-c2cnc3[nH]cc(-c4ccc(NC)nc4)c3c2)c1` [Example 48, N-(3-(3-(6-(methylamino)pyridin-3-yl)-1H-pyrrolo[2,3-b]pyridin-5-yl)phenyl)acryl-amide], with 1 to 5 µM; and `C=CC(=O)Nc1cccc(-c2cnc3[nH]cc(-c4cccnc4)c3c2)c1` [Example 12, N-(3-(3-(pyridin-3-yl)-1H-pyrrolo[2,3-b]pyridin-5-yl)phenyl)acryl-amide], with 1 to 5 µM. With `C=CC(=O)Nc1cccc(-c2cnc3[nH]cc(-c4cccc5ncccc45)c3c2)c1` [Example 54, N-(3-(3-(quinolin-5-yl)-1H-pyrrolo[2,3-b]pyridin-5-yl)phenyl)acryl-amide], the IC50 was in the range of 1 to 5 µM. For the molecule `C=CC(=O)Nc1cccc(-c2cnc3[nH]cc(-c4cc(C)nc(OC)c4)c3c2)c1` [Example 29, N-(3-(3-(2-methoxy-6-methylpyridin-4-yl)-1H-pyrrolo[2,3-b]pyridin-5-yl)phenyl)acryl-amide], the IC50 is 1 to 5 µM.

For the molecule `C=CC(=O)Nc1cccc(-c2cnc3[nH]cc(-c4cccc5ccccc45)c3c2)c1` [Example 53, N-(3-(3-(naphthalen-1-yl)-1H-pyrrolo[2,3-b]pyridin-5-yl)phenyl)acryl-amide], the IC50 was more than 5 µM. On to `C=CC(=O)Nc1cc(-c2cnc3[nH]cc(-c4ccncc4)c3c2)cc(C(F)(F)F)c1` [Example 20, N-(3-(3-(pyridin-4-yl)-1H-pyrrolo[2,3-b]pyridin-5-yl)-5-(trifluoromethyl)phenyl)acryl-amide], for which the IC50 was less than 1 µM. On to `Cc1cc(-c2c[nH]c3ncc(-c4cccc(/C=C(\C#N)C(N)=O)c4)cc23)ccn1` [Example 33, (E)-2-cyano-3-(3-(3-(2-methylpyridin-4-yl)-1H-pyrrolo[2,3-b]pyridin-5-yl)phenyl)acryl-amide], for which the IC50 is 1 to 5 µM. Consider `C=CC(=O)Nc1cccc(-c2cnc3[nH]cc(-c4cc(C)ncn4)c3c2)c1` [Example 44, N-(3-(3-(6-methylpyrimidin-4-yl)-1H-pyrrolo[2,3-b]pyridin-5-yl)phenyl)acryl-amide], for which the IC50 fell in the range of 1 to 5 µM. With `C=CC(=O)Nc1cncc(-c2cnc3[nH]cc(-c4cn(C)c(=O)c5[nH]ccc45)c3c2)c1` [Example 73, N-(5-(3-(6-methyl-7-oxo-6,7-dihydro-1H-pyrrolo[2,3-c]pyridin-4-yl)-1H-pyrrolo[2,3-b]pyridin-5-yl)pyridin-3-yl)acrylamide], the IC50 is more than 5 µM.

Turning to `C=CC(=O)Nc1cccc(-c2cnc3[nH]cc(-c4cn(CC5CC5)c(=O)c5[nH]ccc45)c3c2)c1` [Example 88, N-(3-(3-(6-(cyclopropyl-methyl)-7-oxo-6,7-dihydro-1H-pyrrolo[2,3-c]pyridin-4-yl)-1H-pyrrolo[2,3-b]pyridin-5-yl)phenyl)acryl-amide], the IC50 lay within 1 to 5 µM. `C=CC(=O)Nc1cccc(-c2cnc3[nH]cc(-c4cccc(C#N)c4)c3c2)c1` [Example 92, N-(3-(3-(3-cyanophenyl)-1H-pyrrolo[2,3-b]pyridin-5-yl)phenyl)acryl-amide]: the IC50 lay within 1 to 5 µM. Then `C=CC(=O)Nc1cccc(-c2cnc3[nH]cc(-c4ccnc(NC)c4)c3c2)c1` [Example 32, N-(3-(3-(2-(methylamino)pyridin-4-yl)-1H-pyrrolo[2,3-b]pyridin-5-yl)phenyl)acryl-amide], with less than 1 µM; and `N#C/C(=C\c1cccc(-c2cnc3[nH]cc(-c4ccncn4)c3c2)c1)C(N)=O` [Example 75, (E)-2-cyano-3-(3-(3-(pyrimidin-4-yl)-1H-pyrrolo[2,3-b]pyridin-5-yl)phenyl)acryl-amide], with more than 5 µM. On to `C=CC(=O)Nc1cccc(-c2cnc3[nH]cc(-c4ccc(=O)n(CC5CC5)c4)c3c2)c1` [Example 50, N-(3-(3-(1-(cyclopropyl-methyl)-6-oxo-1,6-dihydropyridin-3-yl)-1H-pyrrolo[2,3-b]pyridin-5-yl)phenyl)acryl-amide], for which the IC50 is less than 1 µM. Then `C=CC(=O)Nc1cc(-c2cnc3[nH]cc(-c4ccnc(F)c4)c3c2)cc(C(F)(F)F)c1` [Example 61, N-(3-(3-(2-fluoropyridin-4-yl)-1H-pyrrolo[2,3-b]pyridin-5-yl)-5-(trifluoromethyl)phenyl)acryl-amide], with less than 1 µM; and `C=CC(=O)Nc1cc(-c2cnc3[nH]cc(-c4ccc(F)nc4)c3c2)cc(C(F)(F)F)c1` [Example 57, N-(3-(3-(6-fluoropyridin-3-yl)-1H-pyrrolo[2,3-b]pyridin-5-yl)-5-(trifluoromethyl)phenyl)acryl-amide], with less than 1 µM; and `C=CC(=O)Nc1cccc(-c2cnc3[nH]cc(-c4ccc(F)nc4)c3c2)c1` [Example 46, N-(3-(3-(6-fluoropyridin-3-yl)-1H-pyrrolo[2,3-b]pyridin-5-yl)phenyl)acryl-amide], with less than 1 µM. The figure for `N#C/C(=C\c1cccc(-c2cnc3[nH]cc(-c4ccc(F)nc4)c3c2)c1)C(N)=O` [Example 63, (E)-2-cyano-3-(3-(3-(6-fluoropyridin-3-yl)-1H-pyrrolo[2,3-b]pyridin-5-yl)phenyl)acryl-amide] is more than 5 µM.

The record behind these values is patent US9695200B2, “Heterocyclic ITK inhibitors for treating inflammation and cancer” (Confluence Life Sciences, Inc., priority 2015, dated 2017).
